Assay results published in patent publication US20090016959A1, “Delivery of antibodies to the central nervous system” (priority 2005, published 2009).
Residues, ends and D or L forms follow the SMILES beside them.

What was measured:
[1] = tested on: bovine brain capillary endothelial cells; assay: In vitro BBB model, first level of selection: peptides in lower chamber visualized by Coomassie blue; format: in vitro ADME; settings: first level of screening; 90 minutes at 37° C
From the text: (§1) This BBCEC medium was changed three times a week.
The medium was changed twice a week.

[2] = tested on: bovine brain capillary endothelial cells; assay: In vitro BBB model, second screening level with iodinated peptides (cpm ratios); format: in vitro ADME
Method: as §1
Two iodo-beads were used for each protein.
Results were expressed as cpm ratios. […] The ratio between the number of [^125I]-peptide found in the bottom chamber of filters covered with or without endothelial cells was also calculated (+cells/−cells).

[3] = tested on: in vitro model of the blood brain barrier; assay: Transcytosis capacity across the in vitro BBB model (Pe); format: in vitro ADME, bovine
Method: as §1
Transcytosis capacity of Aprotinin-Paclitaxel conjugate was determined and is reported below in Table 5.

Compound	peptides detected in the lower side of the chambers by Coomassie blue staining [1]	Ratios −cells/initial [2]	Ratios +cells/−cells ([2]; [125I]-peptide in bottom chamber of filters with versus without endothelial cells)	Ratios +cells/initial ([2]; [125I]-peptide, cpm in bottom chamber / total cpm added, filter covered with endothelial cells, 90 minutes at 37° C)	Transcytosis (Pe 10^−3 cm/min) [3]
C[C@@H](O)[C@H](NC(=O)[C@H](CCCCN)NC(=O)[C@H](Cc1ccccc1)NC(=O)[C@H](CC(N)=O)NC(=O)[C@H](CC(N)=O)NC(=O)[C@H](CCCNC(=N)N)NC(=O)[C@H](CCCCN)NC(=O)CNC(=O)[C@H](CCCNC(=N)N)NC(=O)[C@H](CS)NC(=O)[C@H](CS)NC(=O)CNC(=O)[C@H](Cc1ccc(O)cc1)NC(=O)[C@H](Cc1ccccc1)NC(=O)[C@H](Cc1ccccc1)NC(=O)[C@@H](NC(=O)[C@@H](N)CS)[C@@H](C)O)C(=O)N[C@@H](CCC(=O)O)C(=O)N[C@@H](CCC(=O)O)C(=O)N[C@@H](Cc1ccc(O)cc1)C(=O)O [Peptide 71] (H-CTFFYGCCRGKRNNFKTEEY-OH; N-terminus and C-terminus assumed)	detected in the lower side of the chambers	0.072	0.37	0.027	–
aprotinin	–	–	–	–	0.2 10^−3 cm/min
